Test results from patent US20260317319A1, “NOVEL ERGOLINES AND METHODS OF TREATING MOOD DISORDERS” (Gilgamesh Pharma Inc., priority 2023, published 2026).
Like-named read-outs stand apart in the source and are kept apart here.

Tests used:
in vitro [1] = assay type: in vitro ADME, human; settings: HLM 0.50 mg/mL, NADPH 1 mM, 1 μM compound, pH 7.4, 37° C., 60 min
5-HT2A receptor [2] = target: T1, 5-HT2A receptor (Homo sapiens, UniProt P28223); assay: cell-based; assay type: cell-based; settings: beta-arrestin recruitment
Method in brief: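 PathHunter β-arrestin recruitment (enzyme fragment complementation): 5-HT2A fused to ProLink donor in cells co-expressing β-arrestin–β-galactosidase acceptor, seeded and held at 37° C before testing. Chemiluminescent read-out; agonist % activity = (sample RLU − vehicle)/(max control ligand − vehicle) × 100.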

C57BL/6 mice = assay: Mouse head twitch response (HTR) assay (observer-counted); assay type: in vivo; settings: SC
Protocol: Agonists of the 5-HT2A receptor are well known to induce this effect in rodents and the potency of this HTR is correlated with hallucinogenic potency in humans.
Animals. Adult male C57BL/6 mice, aged 6-8 weeks (body weight 20-25 g) were used in this experiment. Animals were housed under controlled temperatures and 12-hour light/dark cycles (lights on between 07:00-19:00 h), with ad libitum food and water. This study was carried out in strict accordance with the requirements of the Committee for the Purpose of Control and Supervision of Experiments on Animals (CPCSEA), India. All efforts were made to minimize suffering.
Procedure. Mice were administered one dose of the drug and immediately placed into a small open field for behavioral observation. Animals were observed continuously for 20 mins and the number of head twitches (HTs) were counted by an observer blind to the treatment condition.
Statistical Analysis. The data points shown are the mean±standard error of the mean (SEM). Analysis was performed using GraphPad Prism 6. Curves were fit using a non-linear gaussian distribution to calculate ED50 and Emax values.
Additional disclosed compounds were tested in the mouse head twitch response (HTR) assay according to the procedure described in Example 57 (administered SC). […] Lastly, compounds with much larger benzyl and phenethyl substituents on the amine nitrogen (e.g., 10 and 11) were low efficacy in this assay, consistent with their bias toward arrestin signaling (see Example 55).

in vitro [3] = assay type: in vitro ADME, mouse; settings: MLM (male CD-1) 0.50 mg/mL, NADPH 1 mM, 1 μM compound, pH 7.4, 37° C., 60 min
Text: MLM Stability Pooled MLM from male CD-1 mice (BIOIVT M00501) were used.

in vitro [4] = assay type: in vitro ADME, rat; settings: RLM (male Sprague-Dawley) 0.50 mg/mL, NADPH 1 mM, 1 μM compound, pH 7.4, 37° C., 60 min
Text: RLM Stability Pooled RLM from male Sprague-Dawley rats (Xenotech R1000) were used.

5-HT2A receptor [5] = target: T1, 5-HT2A receptor; assay: cell-based; assay type: cell-based; design: expressed in transfected cells; host or cells: HEK293, stably transfected; settings: Ca2+ flux; for EC50: HEK293
Method in brief: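 Receptor agonism was assessed as intracellular calcium mobilization in stably transfected cells, with CHO cells additionally carrying Gα15 for the 5-HT1A readout. Calcium was monitored with Fluo-4 Direct dye.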

5-HT2B receptor = target: T2, 5-HT2B receptor (Homo sapiens, UniProt P41595); assay: cell-based; assay type: cell-based; settings: Ca2+ flux; for EC50: HEK293
T2 construct: expressed in transfected cells; host or cells: HEK293, stably transfected
Method in brief: (§1)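 FLIPR Tetra fluorescence read-out of calcium flux after compound addition. Receptor-expressing stable lines were used (HEK293 for 2A/2B; CHO with Gα15 for 1A), dye-loaded with Fluo-4 Direct and 2.5 mM final probenecid, 50 min at 37 °C.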

5-HT2C receptor = target: T3, 5-HT2C receptor (Homo sapiens, UniProt P28335); assay: Ca2+ flux functional assay at 5-HT2C (WuXi 5-HT2C protocol); assay type: cell-based; design: expressed in transfected cells
T3 sequence (P28335 33-458): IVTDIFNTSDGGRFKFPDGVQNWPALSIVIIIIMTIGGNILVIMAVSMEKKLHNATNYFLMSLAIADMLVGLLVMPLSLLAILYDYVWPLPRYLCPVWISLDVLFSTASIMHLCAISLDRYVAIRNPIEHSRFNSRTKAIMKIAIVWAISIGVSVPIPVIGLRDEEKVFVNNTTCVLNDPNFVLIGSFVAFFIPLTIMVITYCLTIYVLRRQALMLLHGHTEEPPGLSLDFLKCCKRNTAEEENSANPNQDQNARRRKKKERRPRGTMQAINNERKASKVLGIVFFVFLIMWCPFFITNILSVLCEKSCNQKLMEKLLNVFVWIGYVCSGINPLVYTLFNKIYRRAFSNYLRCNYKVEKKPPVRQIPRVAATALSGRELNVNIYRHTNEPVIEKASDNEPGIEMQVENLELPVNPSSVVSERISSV
Protocol: Disclosed compounds were tested for agonist activity at several serotonin receptor subtypes (5-HT2A, […], 5-HT2C, and 5-HT1A) using Ca^2+ flux functional assays and the 5-HT1B receptor using a cAMP accumulation assay, with the results summarized in Table 4. […] Potent agonist activity was also observed at the other serotonin receptors tested, although the selectivity profile among the receptors varied across compounds. […] However, at the same time, the N-propyl compounds were more efficacious agonists at 5-HT2B than the corresponding N-methyl compounds. The selectivity of disclosed compounds for 5-HT2A over 5-HT2C and 5-HT1A was less predictable and varied widely across compounds. […] An azetidinyl amide substituent tended to increase potency at 5-HT1A relative to 5-HT2A.
Functional Assays at 5-HT2A, 5-HT2B, and 5-HT1A. Agonist activity at 5-HT2A, 5-HT2B, 5HT2C and 5-HT1A receptors was determined using a FLIPR Ca^2+ flux assay at WuXi AppTec (Hong Kong) Limited according to their standard protocols. Briefly, stably transfected cells expressing the receptor of interest and Gα15 in the case of 5-HT1A (HEK293 for 5-HT2A and 5-HT2B; CHO cells for 5-HT1A) were grown and plated in a 384 well plate and incubated at 37° C. and 5% CO2 overnight. A solution of 250 mM probenecid in 1 mL FLIPR assay buffer was prepared fresh. This was combined with a fluorescent dye (Fluo-4 Direct™) to make a final assay concentration of 2.5 mM. Compounds were diluted 1:3.16 for 10 points and 750 nL was added to a 384 well compound plate using ECHO along with 30 μL assay buffer. The fluorescent dye was then added to the assay plate along with assay buffer to a final volume of 40 μL. The cell plate was incubated for 50 min at 37° C. and 5% CO2 and placed into the FLIPR Tetra along with the compound plate. 10 μL of references and compounds were then transferred from the compound plate into the cell plate and the fluorescent signal was read.

5-HT2A receptor [6] = target: T1, 5-HT2A receptor; assay: biochemical; assay type: binding; design: expressed in transfected cells; host or cells: HEK293, stably transfected; settings: [3H]ketanserin 1 nM; HEK293 stable cell line; 1 h, 25 °C
Method in brief: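 Binding affinity comes from a [^3H]ketanserin radioligand assay run under literature-adapted conditions.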

5-HT1A receptor = target: T4, 5-HT1A receptor (Homo sapiens, UniProt P08908); assay: cell-based; settings: agonist, Ca2+ flux; for EC50: CHO cells with Gα15
T4 construct: expressed in transfected cells; host or cells: CHO cells, stably transfected
T4 sequence (P08908 1-422): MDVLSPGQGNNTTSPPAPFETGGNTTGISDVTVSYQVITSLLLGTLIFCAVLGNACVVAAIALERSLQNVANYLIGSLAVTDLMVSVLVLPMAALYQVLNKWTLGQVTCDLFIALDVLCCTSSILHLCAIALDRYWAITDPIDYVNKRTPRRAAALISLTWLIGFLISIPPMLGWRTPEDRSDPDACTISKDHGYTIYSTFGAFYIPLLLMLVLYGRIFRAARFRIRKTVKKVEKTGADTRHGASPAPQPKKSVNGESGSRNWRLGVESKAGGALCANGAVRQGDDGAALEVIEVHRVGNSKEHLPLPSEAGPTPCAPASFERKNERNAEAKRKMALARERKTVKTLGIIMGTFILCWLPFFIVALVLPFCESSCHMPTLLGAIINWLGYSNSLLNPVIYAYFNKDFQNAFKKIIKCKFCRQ
Method in brief: as §1

5-HT1B receptor = target: T5, 5-HT1B receptor (Homo sapiens, UniProt P28222); assay: cAMP accumulation functional assay at 5-HT1B; assay type: cell-based; settings: agonist, cAMP accumulation
T5 construct: expressed in transfected cells
Method in brief: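 Agonist activity measured as cAMP accumulation in cells stably transfected with human 5-HT1B. Cells incubated 60 min at RT, then detection reagent added for a further 60 min at RT before plate reading.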

T1 sequence (P28223 whole entry, the tested form may be a part): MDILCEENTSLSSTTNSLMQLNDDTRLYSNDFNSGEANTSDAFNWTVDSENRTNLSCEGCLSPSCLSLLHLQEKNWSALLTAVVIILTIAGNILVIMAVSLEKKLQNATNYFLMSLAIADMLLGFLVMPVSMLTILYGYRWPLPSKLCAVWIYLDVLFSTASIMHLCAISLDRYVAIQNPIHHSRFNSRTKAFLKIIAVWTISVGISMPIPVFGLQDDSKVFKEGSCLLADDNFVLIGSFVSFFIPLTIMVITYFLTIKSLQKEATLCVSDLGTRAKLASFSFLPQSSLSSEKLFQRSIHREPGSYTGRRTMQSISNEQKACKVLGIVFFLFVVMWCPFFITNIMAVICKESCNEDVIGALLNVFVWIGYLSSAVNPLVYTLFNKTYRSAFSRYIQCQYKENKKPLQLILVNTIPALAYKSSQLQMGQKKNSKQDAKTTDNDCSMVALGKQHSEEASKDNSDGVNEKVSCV
T2 sequence (P41595 whole entry): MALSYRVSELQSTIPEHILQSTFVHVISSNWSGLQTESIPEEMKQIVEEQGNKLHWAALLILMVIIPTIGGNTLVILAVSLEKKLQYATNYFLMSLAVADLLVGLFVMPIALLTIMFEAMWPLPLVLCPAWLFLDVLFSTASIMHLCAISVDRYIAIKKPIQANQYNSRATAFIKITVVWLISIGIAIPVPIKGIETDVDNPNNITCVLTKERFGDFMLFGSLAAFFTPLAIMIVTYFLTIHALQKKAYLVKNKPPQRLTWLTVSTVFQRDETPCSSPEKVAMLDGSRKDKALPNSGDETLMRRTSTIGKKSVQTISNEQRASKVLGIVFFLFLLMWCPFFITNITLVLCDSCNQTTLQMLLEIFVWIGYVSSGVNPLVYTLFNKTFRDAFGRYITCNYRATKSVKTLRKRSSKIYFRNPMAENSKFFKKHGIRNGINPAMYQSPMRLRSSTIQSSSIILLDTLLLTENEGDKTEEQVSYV
T5 sequence (P28222 whole entry): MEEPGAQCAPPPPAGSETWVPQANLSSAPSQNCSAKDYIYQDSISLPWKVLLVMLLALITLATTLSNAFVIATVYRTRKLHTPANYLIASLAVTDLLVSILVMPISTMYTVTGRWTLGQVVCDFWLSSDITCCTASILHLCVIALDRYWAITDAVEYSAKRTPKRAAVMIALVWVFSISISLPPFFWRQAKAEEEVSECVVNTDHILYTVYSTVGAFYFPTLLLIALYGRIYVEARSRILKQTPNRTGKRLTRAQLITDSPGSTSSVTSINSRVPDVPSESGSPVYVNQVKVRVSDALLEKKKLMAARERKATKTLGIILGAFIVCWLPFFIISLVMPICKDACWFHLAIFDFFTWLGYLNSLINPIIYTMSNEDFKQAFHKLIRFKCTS

C[C@H]1C[C@H](C)N1C(=O)[C@@H]1C=C2c3cccc4[nH]cc(c34)C[C@H]2N(C)C1 [Int11]
Intrinsic clearance (Clint) (in vitro [1]): 53.9 µL/min/mg
half-life (t1/2) (in vitro [1]): 25.7 min
5-HT2A Arrestin % Act @ Max Dose (5-HT2A receptor [2]; agonist, max dose): 49.27%
5-HT2A arrestin agonist class (5-HT2A receptor [2]): partial agonists
5-HT2A arrestin Emax (bound) (5-HT2A receptor [2]; partial agonists): < 60%
ED50 (HTR) (C57BL/6 mice; 20 min, curve fit poor in some cases): 0.0154 mg/kg
Emax, HTR/20 min (C57BL/6 mice; curve fit poor in some cases): 10.93 HTR/20 min
efficacy in HTR assay (C57BL/6 mice; maximal effect): lower efficacy than analogous compounds bearing other amide substituents
# HTR/20 min at Most Efficacious Dose (C57BL/6 mice; most efficacious dose 0.1 mg/kg): 10.667 HTR/20 min
Intrinsic clearance (Clint) (in vitro [3]): 100 µL/min/mg
half-life (t1/2) (in vitro [3]): 13.9 min
Intrinsic clearance (Clint) (in vitro [4]): 25.3 µL/min/mg
half-life (t1/2) (in vitro [4]): 54.9 min

CCN(CC)C(=O)[C@@H]1C=C2c3cccc4[nH]cc(c34)C[C@H]2N(Cc2ccccc2C)C1 [Compound 99, (6aR,9R)—N,N-diethyl-7-(2-methylbenzyl)-4,6,6a,7,8,9-hexahydroindolo[4,3-fg]quinoline-9-carboxamide]
Emax (5-HT2A receptor [5]; HEK293, agonist, HEK293, max dose, read-out: 5-HT2A % Act @ Max Dose): 73.6%
EC50 (5-HT2A receptor [5]; agonist): 1.21 µM
microsomal CLint (in vitro [1]; human, microsomes, read-out: Intrinsic clearance (Clint)): 86.4 µL/min/mg
half-life (in vitro [1]; human, microsomes, read-out: half-life (t1/2)): 16 min
Emax (5-HT2B receptor; HEK293, agonist, HEK293, max dose, read-out: 5-HT2B % Act @ Max Dose): 1.41%
EC50 (5-HT2B receptor; agonist): > 10 µM
EC50 (5-HT2C receptor): > 10 µM
Emax (5-HT2C receptor; agonist, tested using WuXi 5-HT2C protocol, max dose, read-out: 5-HT2C % Act @ Max Dose (* WuXi protocol)): 0.56%
Ki (5-HT2A receptor [6]): 0.00922 µM
microsomal CLint (in vitro [3]; mouse, microsomes, read-out: Intrinsic clearance (Clint)): 426 µL/min/mg
half-life (in vitro [3]; mouse, microsomes, read-out: half-life (t1/2)): 3.3 min
microsomal CLint (in vitro [4]; rat, microsomes, read-out: Intrinsic clearance (Clint)): 174 µL/min/mg
half-life (in vitro [4]; rat, microsomes, read-out: half-life (t1/2)): 8 min
Emax (5-HT1A receptor; CHO, CHO cells with Gα15, max dose, read-out: 5-HT1A % Act @ Max Dose): 69.9%
EC50 (5-HT1A receptor): 19.6 µM

CCN(CC)C(=O)[C@@H]1C=C2c3cccc4[nH]cc(c34)C[C@H]2N(Cc2ccnc(OC)c2)C1 [Compound 79]
EC50 (5-HT2A receptor [5]; agonist): 2.5 µM
5-HT2A % Act @ Max Dose (5-HT2A receptor [5]; agonist, HEK293, max dose): 68.17%
EC50 (5-HT1B receptor): > 10 µM
5-HT1B % Act @ Max Dose (5-HT1B receptor; max dose): 42.45%
Intrinsic clearance (Clint) (in vitro [1]): 61.2 µL/min/mg
half-life (t1/2) (in vitro [1]): 22.7 min
EC50 (5-HT2B receptor; agonist): > 10 µM
5-HT2B % Act @ Max Dose (5-HT2B receptor; agonist, HEK293, max dose): 1.38%
EC50 (5-HT2C receptor; agonist, Ca2+ flux, tested using WuXi 5-HT2C protocol, read-out: 5-HT2C EC50 (* WuXi protocol)): > 10 µM
5-HT2C % Act @ Max Dose (* WuXi protocol) (5-HT2C receptor; agonist, tested using WuXi 5-HT2C protocol, max dose): 0.60* %
Ki (5-HT2A receptor [6]): 0.182 µM
Intrinsic clearance (Clint) (in vitro [3]): 298.4 µL/min/mg
half-life (t1/2) (in vitro [3]): 4.6 min
Intrinsic clearance (Clint) (in vitro [4]): 80.5 µL/min/mg
half-life (t1/2) (in vitro [4]): 17.2 min
EC50 (5-HT1A receptor): 8.05 µM
5-HT1A % Act @ Max Dose (5-HT1A receptor; CHO cells with Gα15, max dose): 77.71%
